Here are results for three substances from publication PMC11434960, “Evaluation of [^68Ga]Ga-DOTA-AeK as a Potential Imaging Tool for PET Imaging of Cell Wall Synthesis in Bacterial Infections” (Pharmaceuticals, 2024).

The test system of experiment [1] is E. coli. On the set-up: method as in PMID 3891732. The note with it: in vitro; cited from earlier work.
The subject of a further experiment is S. aureus. As to the kind of experiment: Bacterial uptake and incorporation of AeK-NBD, flow cytometry. The experiment is classed as cell-based, Staphylococcus aureus. As for the experimental part: (§1) Bacterial cell cultures (either live or heat-killed) of E. coli or S. aureus (1.0 McFarland standard) were prepared as described above. For bacterial staining, 2.0 μL (100 mM in DMSO) of fluorescent AeK-NBD was added to 198 μL of bacterial culture (7.7 × 10^7 cells/mL), and cells were counterstained with 2.0 μL (10 μM in DMSO) of membrane-permeable DNA Vybrant DyeCycle (VDC) Ruby dye (Thermo Fisher Scientific, Waltham, MA, USA). All cultures were incubated at 37 °C, and samples were taken at different intervals (10, 30, and 60 min) to perform flow cytometric analysis (Cytoflex, Beckman Coulter Life Sciences, Brea, CA, USA). AeK-NBD was excited with a 488 nm laser, and the emitted fluorescence was collected using a 540/30 nm band pass filter, as carried out previously. The VDC Ruby dye was excited with a 638 nm laser, and the emitted fluorescence was collected using a 712/25 nm band pass filter. No noticeable spillover was observed when VDC Ruby ‘only’ and AeK-NBD ‘only’ controls were used as controls for possible fluorescence spillover. […] The NBD-AeK median fluorescence intensity (MFI) of VDC Ruby-positive bacteria was reported. […]
(§2) Sample preparation of E. coli and S. aureus suspensions for confocal fluorescence microscopy imaging involved immediate staining with AeK-NBD and membrane-permeable DNA VDC Ruby dye for 10 min, as described in the previous section. […]
(A flow cytometer gives signals particle by particle.)

Experiment [2] has as its system E. coli. Described as above. The experiment is classed as cell-based, Escherichia coli. As for the experimental part:
as §1, §2

Entries after “also recorded” stand apart in the source; their conditions may differ.

Consider L-Ala-γ-D-Glu-[^3H]A2pm, for which, in the experiment with E. coli [1], the “bacterial uptake / utilisation in PG recycling pathway” value is given as “successful in vitro integration; also recorded: effectively utilized by E. coli”.

For “L-Ala-γ-D-Glu-L-Lys-N-7-nitro-2,1,3-benzoxadiazol-4-yl [AeK-NBD]”, the “time at which bacterial incorporation was observed” value worked out at 10 min with S. aureus (S. aureus, 37 °C) and 10 min in the experiment on E. coli [2] (E. coli, 37 °C). In addition, the “fluorescence intensity in live cells (flow cytometry)” value in the experiment with S. aureus (live S. aureus, significantly decreased in heat-killed cultures (p < 0.05), up to 60 min) is “high fluorescence intensity”; in the experiment with E. coli [2] (live E. coli, significantly decreased in heat-killed cultures (p < 0.05), up to 60 min) it was “high fluorescence intensity”.

Regarding “^3H-labeled disaccharide-(L-Ala-D-Glu-meso-A2pm) tripeptide”, the “bacterial uptake / utilisation in PG recycling pathway” value in the experiment with E. coli [1] is “lack of bacterial uptake and internalization”.
